{"source": "patent US20160037775A1", "about": "“ACTIVE INGREDIENT COMBINATIONS HAVING INSECTICIDAL AND ACARICIDAL PROPERTIES” (priority 2010, published 2016)", "format_in_all_cases": "in vivo", "key": {"Phaedon cochleariae": {"tested_on": "Phaedon cochleariae", "assay": "whole plant or invertebrate", "source_text": "(§1) The expected action for a given combination of two active ingredients can be calculated according to S. R. Colby, Weeds 15 (1967), 20-22 as follows:\n(§2) • X is the kill rate, expressed in % of the untreated control, in the case of use of active ingredient A in an application rate of m g/ha or in a concentration of m ppm, • Y is the kill rate, expressed in % of the untreated control, in the case of use of active ingredient B in an application rate of n g/ha or in a concentration of n ppm, and • E is the kill rate, expressed in % of the untreated control, in the case of use of active ingredients A and B in application rates of m and n g/ha or in a concentration of m and n ppm, then\n(§3) If the actual kill rate is greater than that calculated, the kill rate of the combination is superadditive, which means that a synergistic effect is present. In this case, the kill rate actually observed must be greater than the value calculated from the above formula for the expected kill rate (E).\n(§4) • 78 parts by weight of acetone • 1.5 parts by weight of dimethylformamide Emulsifier: 0.5 part by weight of alkylaryl polyglycol ether\n(§5) To produce an appropriate active ingredient formulation, 1 part by weight of active ingredient is mixed with the stated amounts of solvent and emulsifier, and the concentrate is diluted with emulsifier-containing water to the desired concentration.\nCabbage leaves (Brassica oleracea) are treated by spraying with the active ingredient formulation of the desired concentration and populated with larvae of the mustard beetle (Phaedon cochleariae) while the leaves are still moist.\nAfter the desired period of time, the kill rate in % is determined. 100% means that all beetle larvae have been killed; 0% means that none of the beetle larvae have been killed. The kill rates determined are entered into Colby's formula."}, "Myzus persicae": {"tested_on": "Myzus persicae", "assay": "whole plant or invertebrate", "source_text": "as §3, §4, §5\nAfter the desired time, the kill in % is determined. 100% means that all aphids have been killed; 0% means that no aphids have been killed. The kill rates determined are entered into Colby's formula."}, "Tetranychus urticae": {"tested_on": "Tetranychus urticae", "assay": "Tetranychus test (OP-resistant/spray treatment)", "source_text": "as §1, §2, §3, §4, §5\nDiscs of bean leaves (Phaseolus vulgaris) infested by all stages of the two-spotted spider mite (Tetranychus urticae) are sprayed with an active ingredient formulation of the desired concentration.\nAfter the desired period of time, the effect in % is determined. 100% means that all of the spider mites have been killed; 0% means that none of the spider mites have been killed."}, "[1]": {"settings": "Myzus persicae, 144 h, 0.16 g/ha, after 6 d, read-out: Kill rate in % after 6 d"}, "[2]": {"settings": "Myzus persicae, 24 h, 20 g/ha, after 1 d, read-out: Kill rate in % after 1 d"}, "[3]": {"settings": "Myzus persicae, 144 h, 0.8 g/ha, after 6 d, read-out: Kill rate in % after 6 d"}, "[4]": {"settings": "Myzus persicae, 24 h, 4 g/ha, after 1 d, read-out: Kill rate in % after 1 d"}, "[5]": {"settings": "Myzus persicae, 24 h, read-out: Kill rate in % after 1 d"}, "[6]": {"settings": "Myzus persicae, 144 h, read-out: Kill rate in % after 6 d"}}, "note": "Read-outs that look alike come from different tables or passages of the source."}
{"compound": "N#Cc1nn(-c2c(Cl)cc(C(F)(F)F)cc2Cl)c(N)c1[S+]([O-])C(F)(F)F", "note": "(centres unmarked) [fipronil]", "values": [{"measurement": "Kill rate in % after 2 d", "setting": "Phaedon cochleariae; 0.16 g/ha, after 2 d", "value": 67, "unit": "%"}, {"measurement": "pest or weed control at 0.16 g/ha", "setting": "Myzus persicae; [1]", "value": 0, "unit": "%"}]}
{"compound": "COP(N)(=O)SC", "note": "(centres unmarked) [methamidophos]", "values": [{"measurement": "pest or weed control at 20 g/ha", "setting": "Myzus persicae; [2]", "value": 0, "unit": "%"}, {"measurement": "pest or weed control at 100 g/ha", "setting": "Myzus persicae; Myzus persicae, 24 h, 100 g/ha, after 1 d, read-out: Kill rate in % after 1 d", "value": 80, "unit": "%"}]}
{"compound": "CNC(=O)O/N=C/C(C)(C)SC", "note": "[aldicarb]", "values": [{"measurement": "Kill rate in % after 2 d", "setting": "Phaedon cochleariae; 0.8 g/ha, after 2 d", "value": 0, "unit": "%"}, {"measurement": "pest or weed control at 0.8 g/ha", "setting": "Myzus persicae; [3]", "value": 0, "unit": "%"}]}
{"compound": "CC[S+]([O-])c1c(C#N)nn(-c2c(Cl)cc(C(F)(F)F)cc2Cl)c1N", "note": "(centres unmarked) [ethiprole]", "values": [{"measurement": "pest or weed control at 4 g/ha", "setting": "Myzus persicae; [4]", "value": 0, "unit": "%"}]}
{"compound": "CC(c1ccc(C(F)(F)F)nc1)S(C)(=O)=NC#N", "note": "(centres unmarked) [sulfoxaflor]", "values": [{"measurement": "pest or weed control at 0.16 g/ha", "setting": "Myzus persicae; Myzus persicae, 24 h, 0.16 g/ha, after 1 d, read-out: Kill rate in % after 1 d", "value": 0, "unit": "%"}]}
{"compound": "N#C/N=C1\\SCCN1Cc1ccc(Cl)nc1", "note": "[thiacloprid]", "values": [{"measurement": "pest or weed control at 20 g/ha", "setting": "Myzus persicae; [2]", "value": 80, "unit": "%"}, {"measurement": "pest or weed control at 0.8 g/ha", "setting": "Myzus persicae; [3]", "value": 80, "unit": "%"}]}
{"compound": "Cc1cc(C)c(C2=C(OC(=O)CC(C)(C)C)C3(CCCC3)OC2=O)c(C)c1", "note": "[spiromesifen]", "values": [{"measurement": "Kill rate in % after 6 d", "setting": "Tetranychus urticae; 4 g/ha, after 6 d, applied individually", "value": 70, "unit": "%"}, {"measurement": "Kill rate in % after 6 d", "setting": "Tetranychus urticae; 20 g/ha, after 6 d, applied individually", "value": 80, "unit": "%"}, {"measurement": "Kill rate in % after 1 d", "setting": "Myzus persicae; 4 g/ha, after 1 d", "value": 0, "unit": "%"}]}
{"compound": "CNC(=O)Oc1cccc2c1OC(C)(C)C2", "note": "[carbofuran]", "values": [{"measurement": "pest or weed control at 20 g/ha", "setting": "Myzus persicae; [2]", "value": 70, "unit": "%"}]}
{"compound": "COP(=O)(NC(C)=O)SC", "note": "(centres unmarked) [acephate]", "values": [{"measurement": "pest or weed control at 4 g/ha", "setting": "Phaedon cochleariae; Phaedon cochleariae, 144 h, read-out: Kill rate in % after 6 d", "value": 0, "unit": "%"}, {"measurement": "pest or weed control at 100 g/ha", "setting": "Myzus persicae; [5]", "value": 0, "unit": "%"}]}
{"compound": "N#CCNC(=O)c1cnccc1C(F)(F)F", "note": "[flonicamid]", "values": [{"measurement": "Kill rate in % after 1 d", "setting": "Myzus persicae; 20 g/ha, after 1 d", "value": 0, "unit": "%"}]}
{"compound": "CC1(C)C(C=C(Cl)Cl)C1C(=O)OC(C#N)c1cccc(Oc2ccccc2)c1", "note": "(centres unmarked) [cypermethrin]", "values": [{"measurement": "pest or weed control at 0.16 g/ha", "setting": "Phaedon cochleariae; Phaedon cochleariae, 144 h, 0.16 g/ha, after 6 d, read-out: Kill rate in % after 6 d", "value": 0, "unit": "%"}, {"measurement": "pest or weed control at 4 g/ha", "setting": "Myzus persicae; [4]", "value": 80, "unit": "%"}]}
{"compound": "CC(C)c1cc(Oc2ccccc2)cc(C(C)C)c1NC(=S)NC(C)(C)C", "note": "[diafenthiuron]", "values": [{"measurement": "pest or weed control at 100 g/ha", "setting": "Tetranychus urticae; Tetranychus urticae, 48 h, read-out: Kill rate in % after 2 d", "value": 0, "unit": "%"}, {"measurement": "pest or weed control at 20 g/ha", "setting": "Tetranychus urticae; Tetranychus urticae, 144 h, read-out: Kill rate in % after 6 d", "value": 10, "unit": "%"}, {"measurement": "pest or weed control at 100 g/ha", "setting": "Myzus persicae; [5]", "value": 0, "unit": "%"}, {"measurement": "pest or weed control at 20 g/ha", "setting": "Myzus persicae; [6]", "value": 70, "unit": "%"}]}
{"compound": "CCCSP(=O)(OCC)SCCC", "note": "[ethoprophos]", "values": [{"measurement": "pest or weed control at 0.8 g/ha", "setting": "Phaedon cochleariae; Phaedon cochleariae, 144 h, 0.8 g/ha, after 6 d, read-out: Kill rate in % after 6 d", "value": 0, "unit": "%"}, {"measurement": "pest or weed control at 4 g/ha", "setting": "Myzus persicae; [6]", "value": 0, "unit": "%"}]}
{"compound": "C/C(=N\\C#N)N(C)Cc1ccc(Cl)nc1", "note": "[acetamiprid]", "values": [{"measurement": "pest or weed control at 0.16 g/ha", "setting": "Myzus persicae; [1]", "value": 0, "unit": "%"}]}
{"compound": "milbemectin", "values": [{"measurement": "Kill rate in % after 2 d", "setting": "Tetranychus urticae; 0.032 g/ha, after 2 d, applied individually", "value": 50, "unit": "%"}, {"measurement": "Kill rate in % after 6 d", "setting": "Myzus persicae; 0.032 g/ha, after 6 d", "value": 0, "unit": "%"}, {"measurement": "Kill rate in % after 1 d", "setting": "Myzus persicae; 0.8 g/ha, after 1 d", "value": 0, "unit": "%"}]}
{"compound": "CN/C(=N/CC1CCOC1)N[N+](=O)[O-]", "note": "(centres unmarked) [dinotefuran]", "values": [{"measurement": "Kill rate in % after 2 d", "setting": "Phaedon cochleariae; in vivo", "value": 0, "unit": "%"}]}
{"compound": "Cc1c(F)c(F)c(COC(=O)[C@@H]2[C@H](/C=C(\\Cl)C(F)(F)F)C2(C)C)c(F)c1F", "note": "(racemic) [tefluthrin]", "values": [{"measurement": "pest or weed control at 20 g/ha", "setting": "Tetranychus urticae; Tetranychus urticae, 144 h, 20 g/ha, after 6 d, applied individually, read-out: Kill rate in % after 6 d", "value": 0, "unit": "%"}]}
{"compound": "O=C1C=C(N(Cc2ccc(Cl)nc2)CC(F)F)CO1", "note": "[4-{[(6-chloropyrid-3-yl)methyl](2,2-difluoroethyl)amino}furan-2(5H)-one]", "values": [{"measurement": "pest or weed control at 20 g/ha", "setting": "Tetranychus urticae; Tetranychus urticae, 48 h, 20 g/ha, after 2 d, applied individually, read-out: Kill rate in % after 2 d", "value": 0, "unit": "%"}, {"measurement": "pest or weed control at 20 g/ha", "setting": "Myzus persicae; [2]", "value": 0, "unit": "%"}]}
{"compound": "CC1(C)C(C=C(Cl)Cl)C1C(=O)OC(C#N)c1ccc(F)c(Oc2ccccc2)c1", "note": "(stereo not drawn) [β-cyfluthrin]", "values": [{"measurement": "Kill rate in % after 2 d", "setting": "Phaedon cochleariae; 0.032 g/ha, after 2 d", "value": 0, "unit": "%"}, {"measurement": "Kill rate in % after 1 d", "setting": "Myzus persicae; 0.032 g/ha, after 1 d", "value": 0, "unit": "%"}, {"measurement": "Kill rate in % after 1 d", "setting": "Myzus persicae; 0.16 g/ha, after 1 d", "value": 70, "unit": "%"}]}
{"compound": "CCOC(=O)OC1=C(c2cc(C)ccc2C)C(=O)N[C@]12CC[C@@H](OC)CC2", "note": "[spirotetramat]", "values": [{"measurement": "pest or weed control at 4 g/ha", "setting": "Tetranychus urticae; Tetranychus urticae, 48 h, 4 g/ha, after 2 d, applied individually, read-out: Kill rate in % after 2 d", "value": 0, "unit": "%"}]}
{"compound": "CC(C)N1C(=O)N(c2ccccc2)CS/C1=N\\C(C)(C)C", "note": "[buprofezin]", "values": [{"measurement": "pest or weed control at 500 g/ha", "setting": "Myzus persicae; Myzus persicae, 24 h, 500 g/ha, after 1 d, read-out: Kill rate in % after 1 d", "value": 0, "unit": "%"}]}
